A short description of data set [1]: Pharmacokinetic analysis in mice. Format: in vivo, C57BL/6 mice. An excerpt:
The pharmacokinetic properties of SS-1-64 are summarized in the following table along with a comparator RIPK2/NOD inhibitor CSLP37, N-(5-(2-Amino-5-(4-(piperazin-1-yl)phenyl)pyridin-3-yl)-3-fluoro-2-methoxyphenyl)propane-1-sulfonamide (U.S. Pat. No. 11,135,298 to Cuny et al.).

The test system of data set [2] is HEK-Blue cells expressing human NOD2. Kind of data set: NOD2 signaling assay #1 (HEK-Blue NFkB-SEAP reporter, L18-MDP stimulated). Format: cell-based. The settings on record: 1 ng/ml L18-MDP, read-out: IC50 (nM) HEKBlue. How it is done: HEK-Blue cells expressing human NOD2 and NFkB-SAEP reporter (Invivogen) are seeded into 96 well clear plates at 7.5×10^3 cells per well in 100 μL of DMEM media supplemented with 10% FBS and 1% antibiotic-antimycotic mix. Cells are allowed to attach for 48 h in 5% CO2 tissue culture incubator at 37° C. On the morning of the experiment, media in the wells is replaced with 100 μL of HEK-Blue detection media (Invivogen). Cells are treated with the inhibitors, diluted in DMSO (0.5 μL per well) for 15 min in 5% CO2 tissue culture incubator at 37° C. After that, cells are stimulated by the addition of 1 ng/ml L18-MDP (Invivogen). Cells are incubated in 5% CO2 tissue culture incubator at 37° C. for 8 h and absorbance, corresponding to the SEAP in the media, is determined in Wallac3V plate reader (Perkin Elmer). Inhibition, %=(1−((sample signal-unstimulated and DMSO treated cells)/(L18-MDP stimulated and DMSO treated cells−unstimulated and DMSO treated cells)))*100. IC50 values are calculated based on a dose range of inhibitor concentrations using non-linear regression in GraphPad Prism software.

For data set [3], the target named is Recombinant RIPK2 protein (Homo sapiens, UniProt O43353). As to the kind of experiment: RIPK2 enzyme assay (ADP-Glo). In kind it is biochemical. The settings on record: NI: no inhibition observed. How it is done: Recombinant RIPK2 protein (20 ng per reaction) is diluted in the reaction buffer consisting of 40 mM Tris (pH 7.5); 20 mM MgCl2; 0.1 mg/ml BSA; 50 μM DTT. Diluted protein is added to low volume white 384 well plates (2 μL/well). Inhibitors are diluted in reaction buffer (final 25% DMSO), 1 μL is added to each well and incubated 5 min at room temperature. Reactions are initiated by the addition of 2 μL of 100 μM ATP and 1 mg/ml RS repeat peptide (SignalChem) in the reaction buffer. Plates are sealed with plastic coverslips and incubated at room temperature for 2 h. Reactions are stopped by the addition of 5 μL of ADP-Glo reagent (Promega) and ADP generation reaction is performed for 40 min at room temperature. Luminescence signal is generated by the addition of 10 μL of Kinase detection reagent (Promega) for 30 min at room temperature. Luminescence signals are determined using appropriate luminescence plate-reader (typical integration time 0.3-1 sec). To calculate percent inhibition, average background signal is subtracted from test well and maximal signal wells. Inhibition, %=(1−(test signal/maximal signal))*100. The percent inhibition at a specified concentration is determined or IC50 values are calculated based on a dose range of inhibitor concentrations using non-linear regression in GraphPad Prism software.
(In general: In ADP-Glo the light output rises with the ADP produced.)

The test system of data set [4] is NOD2 cellular signaling in THP1 cells. As to the kind of experiment: NOD2 signaling assay #2 (THP1 NFkB-SEAP reporter, L18-MDP stimulated). Format: cell-based. The settings on record: Homo sapiens, THP-1, 10 ng/ml L18-MDP. How it is done: THP1 cells expressing NFkB-SAEP reporter (Invivogen) are seeded into 96 well clear plates at 5×10^4 cells per well in 100 μL of RPM11640 media supplemented with 10% FBS and 1% antibiotic-antimycotic mix. Cells are treated with the inhibitors, diluted in DMSO ([…] per well) for 15 min in 5% CO2 tissue culture incubator at 37° C. After that, cells are stimulated by the addition of 10 ng/ml L18-MDP (Invivogen). Cells are incubated in 5% CO2 tissue culture incubator at 37° C. for 8 h and absorbance, corresponding to the SEAP in the media, is determined in Wallac3V plate reader (Perkin Elmer). Inhibition, %=(1−((sample signal-unstimulated and DMSO treated cells)/(L18-MDP stimulated and DMSO treated cells−unstimulated and DMSO treated cells)))*100. IC50 values are calculated based on a dose range of inhibitor concentrations using non-linear regression in GraphPad Prism software.

Setting [5] is: female, C57BL/6, mouse, in vivo, ip, 10 mg/kg.
Setting [6] is: single dose 10 mg/kg intraperitoneally, female C57BL/6 mice.

Structures are written as SMILES. Read-outs that look alike come from different tables or passages of the source.

As a reminder, the Tmax is the time at which the peak concentration occurs. A word on the AUC: it is the area under the concentration-time curve, a measure of exposure. Low values mean low exposure, high ones high exposure. Broadly, the IC50 is the concentration that gives 50% inhibition.

Chain of Recombinant RIPK2 protein (O43353 whole entry, species assumed): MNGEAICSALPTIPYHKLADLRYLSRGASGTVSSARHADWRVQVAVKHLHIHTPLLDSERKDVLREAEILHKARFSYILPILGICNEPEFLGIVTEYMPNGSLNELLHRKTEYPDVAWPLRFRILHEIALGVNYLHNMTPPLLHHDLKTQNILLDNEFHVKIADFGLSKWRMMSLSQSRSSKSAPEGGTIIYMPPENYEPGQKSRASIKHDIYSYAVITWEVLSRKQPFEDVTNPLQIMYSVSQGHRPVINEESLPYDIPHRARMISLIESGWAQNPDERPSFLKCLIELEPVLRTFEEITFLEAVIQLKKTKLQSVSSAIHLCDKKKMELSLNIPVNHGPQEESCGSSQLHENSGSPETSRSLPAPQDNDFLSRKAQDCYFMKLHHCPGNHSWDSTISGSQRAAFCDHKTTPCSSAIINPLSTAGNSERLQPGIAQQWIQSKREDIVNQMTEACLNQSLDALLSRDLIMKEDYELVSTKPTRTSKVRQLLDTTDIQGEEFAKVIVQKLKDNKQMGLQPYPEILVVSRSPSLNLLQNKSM

As to `CCCS(=O)(=O)Nc1cc(-c2cc(-c3ccc(N4CCNCC4)cc3)cnc2N)cc(F)c1OC` [CSLP37, N-(5-(2-Amino-5-(4-(piperazin-1-yl)phenyl)pyridin-3-yl)-3-fluoro-2-methoxyphenyl)propane-1-sulfonamide, reference compound], in data set [1] (setting [5]), the “Cl (clearance)” value amounted to 59.66 ± 15.09 mL/min/kg, the Cmax was 550 ± 200 nM, the time of peak concentration (Tmax) came out at 1.2 ± 0.4472 h and the “V (volume of distribution)” value is reported as 24.04 ± 6.15 L/kg. Also, in data set [1] (setting [5]), the “t1/2 (plasma elimination half-life)” value amounted to 4.66 ± 0.24 h. For the same compound, the AUC in data set [1] (mouse, in vivo, ip, 10 mg/kg) came to 2920 ng·h/mL.

On to `CCCS(=O)(=O)Nc1cc(-c2cc(Br)cnc2N)cc(F)c1OC` [SS-1-5, N-(5-(2-amino-5-bromopyridin-3-yl)-3-fluoro-2-methoxyphenyl)propane-1-sulfonamide], for which, in data set [2], the IC50 amounted to 57 nM.

Consider `CCCS(=O)(=O)Nc1cc(-c2cc(-c3ccc(N4CCNCC4)cc3)cnc2NC)cc(F)c1OC` [SS-1-10, N-(3-fluoro-2-methoxy-5-(2-(methylamino)-5-(4-(piperazin-1-yl)phenyl)pyridin-3-yl)phenyl)propane-1-sulfonamide], for which the IC50 in data set [2] amounted to 16 nM.

Consider `CCCS(=O)(=O)Nc1cc(-c2cc(-c3ccc(C4CCNCC4)cc3)cnc2N)cc(F)c1OC` [SS-1-14, N-(5-(2-amino-5-(4-(piperidin-4-yl)phenyl)pyridin-3-yl)-3-fluoro-2-methoxyphenyl)propane-1-sulfonamide], for which the concentration for half-maximal inhibition (IC50) in data set [2] turned out to be 0.06 nM; in data set [3] it was 11 nM.

With `CCCS(=O)(=O)Nc1cc(-c2cc(-c3ccc(N4CCN(C)CC4)cc3)cnc2N)cc(F)c1OC` [SS-1-18, N-(5-(2-amino-5-(4-(4-methylpiperazin-1-yl)phenyl)pyridin-3-yl)-3-fluoro-2-methoxyphenyl)propane-1-sulfonamide], the values for the concentration for half-maximal inhibition (IC50) in data set [2] and in data set [3] were 0.03 nM and 10 nM, respectively.

As to `COc1c(F)cc(-c2cc(-c3ccc(N4CCNCC4)cc3)cnc2N)cc1NS(C)(=O)=O` [SS-1-33, N-(5-(2-amino-5-(4-(piperazin-1-yl)phenyl)pyridin-3-yl)-3-fluoro-2-methoxyphenyl)methanesulfonamide], the IC50 stood at 0.17 nM in data set [2] and 29 nM in data set [3].

Regarding `CCCS(=O)(=O)Nc1cc(-c2cc(-c3ccc(C4CCN(C)CC4)cc3)cnc2N)cc(F)c1OC` [SS-1-38, N-(5-(2-amino-5-(4-(1-methylpiperidin-4-yl)phenyl)pyridin-3-yl)-3-fluoro-2-methoxyphenyl)propane-1-sulfonamide], the IC50 turned out to be 0.07 nM in data set [2] and 31 nM in data set [3].

Take `CCCS(=O)(=O)N(C)c1cc(-c2cc(-c3ccc(N4CCNCC4)cc3)cnc2N)cc(F)c1OC` [SS-1-39, N-(5-(2-amino-5-(4-(piperazin-1-yl)phenyl)pyridin-3-yl)-3-fluoro-2-methoxyphenyl)-N-methylpropane-1-sulfonamide]: the figures for the IC50 in data set [2] and in data set [3] were 1.2 nM and 137 nM, respectively.

Take `COc1c(F)cc(-c2cc(-c3ccc(C4CCN(C)CC4)cc3)cnc2N)cc1NS(C)(=O)=O` [SS-1-43, N-(5-(2-amino-5-(4-(1-methylpiperidin-4-yl)phenyl)pyridin-3-yl)-3-fluoro-2-methoxyphenyl)methanesulfonamide]: inhibition in data set [4] was half-maximal at 0.1 nM (IC50).

The compound `COc1c(F)cc(-c2cc(-c3ccc(C4CCN(C)CC4)cc3)cnc2N)cc1N(C)S(C)(=O)=O` [SS-1-50, N-(5-(2-amino-5-(4-(1-methylpiperidin-4-yl)phenyl)pyridin-3-yl)-3-fluoro-2-methoxyphenyl)-N-methylmethanesulfonamide] yielded a half-maximal inhibitory concentration (IC50) in data set [4] of 1.2 nM.

Turning to `COc1cc(-c2cc(-c3ccc(C4CCN(C)CC4)cc3)cnc2N)cc(NS(C)(=O)=O)c1OC` [SS-1-64, N-(5-(2-amino-5-(4-(1-methylpiperidin-4-yl)phenyl)pyridin-3-yl)-2,3-dimethoxyphenyl)methanesulfonamide], in data set [4], the 50% inhibitory concentration (IC50) was 0.014 nM. In addition, in data set [1] (mouse, in vivo, ip, single dose 10 mg/kg intraperitoneally, 6% Captisol in water, female C57BL/6 mice, read-out: maximum plasma concentration (Cmax)), the Cmax turned out to be 1630 ± 1200 nM. Moreover, the time to peak (Tmax) in data set [1] (mouse, in vivo, ip, single dose 10 mg/kg intraperitoneally, female C57BL/6 mice, read-out: Tmax) is 1 h. For the same compound, in data set [1] (mouse, in vivo, ip, single dose 10 mg/kg intraperitoneally, female C57BL/6 mice, read-out: t1/2 (plasma elimination half-life) (converted)), the half-life was 7.88 ± 0.28 h. In data set [1] (setting [6]), the “Cl (clearance)” value turned out to be 53.56 ± 5.68 mL/min/kg and the “V (volume of distribution)” value was determined as 36.45 ± 2.61 L/kg. Also, the Tmax in data set [1] (single dose 10 mg/kg intraperitoneally, female C57BL/6 mice, plasma) worked out at 1 ± 0 h.

In turn, `CCCS(=O)(=O)Nc1cc(-c2cc(C#CCN3CCN(C)CC3)cnc2N)cc(F)c1OC` [SS-1-66, N-(5-(2-amino-5-(3-(4-methylpiperazin-1-yl)prop-1-yn-1-yl)pyridin-3-yl)-3-fluoro-2-methoxyphenyl)propane-1-sulfonamide] showed an IC50 in data set [4] of 20 nM.

In the case of `COc1cc(-c2cc(-c3ccc(C4CCN(C)CC4)cc3)cnc2N)cc(NC(C)=O)c1OC` [SS-2-41, N-(5-(2-amino-5-(4-(1-methylpiperidin-4-yl)phenyl)pyridin-3-yl)-2,3-dimethoxyphenyl)acetamide], in data set [4], half-maximal inhibition (IC50) required 0.1 nM.

Values taken from patent US20250340527A1, “RIPK2 AND NOD INHIBITORS” (Trustees of Tufts College, priority 2022, published 2025).
